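Cells were grown in 96-well plates and exposed to each compound for 48 hours at five concentrations; endpoints were interpolated linearly between bracketing concentrations, or set to the highest concentration if not reached. Definition used: TGI = concentration required for complete inhibition of growth.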
Assays:
Assay in all cases: inhibition of tumour cell growth, NCI panel, 48 h
HCT-15 colon = system: HCT-15 colon
COLO 205 colon = system: COLO 205 colon
HL-60(TB) leukemia = system: HL-60(TB) leukemia
M14 melanoma = system: M14 melanoma
SK-OV-3 ovarian = system: SK-OV-3 ovarian
KM12 colon = system: KM12 colon
UO-31 renal = system: UO-31 renal
MOLT-4 leukemia = system: MOLT-4 leukemia
HOP-92 NSCLC = system: HOP-92 NSCLC
OVCAR-5 ovarian = system: OVCAR-5 ovarian
XF 498 CNS = system: XF 498 CNS
SF-295 CNS = system: SF-295 CNS
SK-MEL-5 melanoma = system: SK-MEL-5 melanoma
786-0 renal = system: 786-0 renal
SR leukemia = system: SR leukemia
NCI-H23 lung = system: NCI-H23 lung
HOP-62 NSCLC = system: HOP-62 NSCLC
OVCAR-8 ovarian = system: OVCAR-8 ovarian
HOP-18 NSCLC = system: HOP-18 NSCLC
HCC-2998 colon = system: HCC-2998 colon
SK-MEL-2 melanoma = system: SK-MEL-2 melanoma
DLD-1 colon = system: DLD-1 colon
K-562 leukemia = system: K-562 leukemia
HT29 colon = system: HT29 colon
NCI-H226 lung = system: NCI-H226 lung
HCT-116 colon = system: HCT-116 colon
DMS 114 small cell lung = system: DMS 114 small cell lung
IGROV1 ovarian = system: IGROV1 ovarian
MALME-3M melanoma = system: MALME-3M melanoma
NCI-H522 lung = system: NCI-H522 lung
UACC-257 melanoma = system: UACC-257 melanoma
TK-10 renal = system: TK-10 renal
EKVX NSCLC = system: EKVX NSCLC
CAKI-1 renal = system: CAKI-1 renal
RPMI-8226 leukemia = system: RPMI-8226 leukemia
SW-620 colon = system: SW-620 colon
ACHN renal = system: ACHN renal
A498 renal = system: A498 renal
OVCAR-4 ovarian = system: OVCAR-4 ovarian
RXF-631 renal = system: RXF-631 renal
SNB-78 CNS = system: SNB-78 CNS
DMS 273 small cell lung = system: DMS 273 small cell lung
SK-MEL-28 melanoma = system: SK-MEL-28 melanoma
LXFL 529 NSCLC = system: LXFL 529 NSCLC
OVCAR-3 ovarian = system: OVCAR-3 ovarian
SN12C renal = system: SN12C renal
NCI-H460 lung = system: NCI-H460 lung
SF-539 CNS = system: SF-539 CNS
SNB-19 CNS = system: SNB-19 CNS
UACC-62 melanoma = system: UACC-62 melanoma
M19-MEL melanoma = system: M19-MEL melanoma
U251 CNS = system: U251 CNS
CCRF-CEM leukemia = system: CCRF-CEM leukemia
SNB-75 CNS = system: SNB-75 CNS
A549 NSCLC = system: A549 NSCLC
SF-268 CNS = system: SF-268 CNS
KM20L2 colon = system: KM20L2 colon
RXF 393 renal = system: RXF 393 renal
LOX IMVI melanoma = system: LOX IMVI melanoma

CC1=C(C(=O)Nc2ccc(Cl)c(Cl)c2)C(c2ccco2)C(C(=O)Nc2ccc(Cl)c(Cl)c2)=C(C)N1
TGI (HCT-15 colon): 24.3 µM | TGI (COLO 205 colon): 25.7 µM | TGI (HL-60(TB) leukemia): 42.4 µM | TGI (M14 melanoma): 18.4 µM | TGI (SK-OV-3 ovarian): 28.5 µM | TGI (KM12 colon): 27.3 µM | TGI (UO-31 renal): 21.7 µM | TGI (MOLT-4 leukemia): 48 µM | TGI (HOP-92 NSCLC): 31.2 µM | TGI (OVCAR-5 ovarian): 29.3 µM | TGI (XF 498 CNS): 7.94 µM | TGI (SF-295 CNS): 20.5 µM | TGI (SK-MEL-5 melanoma): 26.9 µM | TGI (786-0 renal): 25.8 µM | TGI (SR leukemia): 32 µM | TGI (NCI-H23 lung): 35.2 µM | TGI (HOP-62 NSCLC): 27.6 µM | TGI (OVCAR-8 ovarian): 24.3 µM | TGI (HOP-18 NSCLC): 26.7 µM | TGI (HCC-2998 colon): 23.9 µM | TGI (SK-MEL-2 melanoma): 26.3 µM | TGI (DLD-1 colon): 23.4 µM | TGI (K-562 leukemia): 29 µM | TGI (HT29 colon): 29.9 µM | TGI (NCI-H226 lung): 25.6 µM | TGI (HCT-116 colon): 21.5 µM | TGI (DMS 114 small cell lung): 22.2 µM | TGI (IGROV1 ovarian): 32.6 µM | TGI (MALME-3M melanoma): 29.5 µM | TGI (NCI-H522 lung): 26.7 µM | TGI (UACC-257 melanoma): 28.5 µM | TGI (TK-10 renal): 18.9 µM | TGI (EKVX NSCLC): 29.5 µM | TGI (CAKI-1 renal): 27.8 µM | TGI (RPMI-8226 leukemia): 38.4 µM | TGI (SW-620 colon): 28.3 µM | TGI (ACHN renal): 18.2 µM | TGI (A498 renal): 26.6 µM | TGI (OVCAR-4 ovarian): 24.6 µM | TGI (RXF-631 renal): 46 µM | TGI (SNB-78 CNS): 41.4 µM | TGI (DMS 273 small cell lung): 32.7 µM | TGI (SK-MEL-28 melanoma): 25.3 µM | TGI (LXFL 529 NSCLC): 24.2 µM | TGI (OVCAR-3 ovarian): 20.2 µM | TGI (SN12C renal): 23.9 µM | TGI (NCI-H460 lung): 31.6 µM | TGI (SF-539 CNS): 27.7 µM | TGI (SNB-19 CNS): 25.8 µM | TGI (UACC-62 melanoma): 26 µM | TGI (M19-MEL melanoma): 24.9 µM | TGI (U251 CNS): 23.9 µM | TGI (CCRF-CEM leukemia): 27.7 µM | TGI (SNB-75 CNS): 31.5 µM | TGI (A549 NSCLC): 28.1 µM | TGI (SF-268 CNS): 23.9 µM

CCOC(=O)c1cn(Cc2ccccc2)c(=O)n1Cc1ccccc1
TGI (HCT-15 colon): > 100 µM | TGI (COLO 205 colon): > 100 µM | TGI (HL-60(TB) leukemia): > 100 µM | TGI (M14 melanoma): > 100 µM | TGI (SK-OV-3 ovarian): > 100 µM | TGI (KM12 colon): > 100 µM | TGI (UO-31 renal): > 100 µM | TGI (KM20L2 colon): > 100 µM | TGI (MOLT-4 leukemia): > 100 µM | TGI (HOP-92 NSCLC): > 100 µM | TGI (OVCAR-5 ovarian): > 100 µM | TGI (XF 498 CNS): > 100 µM | TGI (SF-295 CNS): > 100 µM | TGI (RXF 393 renal): > 100 µM | TGI (SK-MEL-5 melanoma): > 100 µM | TGI (786-0 renal): > 100 µM | TGI (NCI-H23 lung): > 100 µM | TGI (HOP-62 NSCLC): > 100 µM | TGI (OVCAR-8 ovarian): > 100 µM | TGI (HOP-18 NSCLC): > 100 µM | TGI (HCC-2998 colon): > 100 µM | TGI (SK-MEL-2 melanoma): > 100 µM | TGI (DLD-1 colon): > 100 µM | TGI (K-562 leukemia): > 100 µM | TGI (HT29 colon): > 100 µM | TGI (NCI-H226 lung): > 100 µM | TGI (HCT-116 colon): > 100 µM | TGI (DMS 114 small cell lung): > 100 µM | TGI (IGROV1 ovarian): > 100 µM | TGI (MALME-3M melanoma): > 100 µM | TGI (NCI-H522 lung): > 100 µM | TGI (UACC-257 melanoma): > 100 µM | TGI (TK-10 renal): > 100 µM | TGI (EKVX NSCLC): > 100 µM | TGI (CAKI-1 renal): > 100 µM | TGI (RPMI-8226 leukemia): > 100 µM | TGI (SW-620 colon): > 100 µM | TGI (ACHN renal): > 100 µM | TGI (A498 renal): > 100 µM | TGI (OVCAR-4 ovarian): > 100 µM | TGI (RXF-631 renal): > 100 µM | TGI (SNB-78 CNS): > 100 µM | TGI (DMS 273 small cell lung): > 100 µM | TGI (LOX IMVI melanoma): > 100 µM | TGI (SK-MEL-28 melanoma): > 100 µM | TGI (LXFL 529 NSCLC): > 100 µM | TGI (OVCAR-3 ovarian): > 100 µM | TGI (SN12C renal): > 100 µM | TGI (NCI-H460 lung): > 100 µM | TGI (SF-539 CNS): > 100 µM | TGI (SNB-19 CNS): > 100 µM | TGI (UACC-62 melanoma): > 100 µM | TGI (M19-MEL melanoma): > 100 µM | TGI (U251 CNS): > 100 µM | TGI (CCRF-CEM leukemia): > 100 µM | TGI (SNB-75 CNS): > 100 µM | TGI (A549 NSCLC): > 100 µM | TGI (SF-268 CNS): > 100 µM

Source: PubChem BioAssay (NCI)
